Patent EP1619246A1, “RNA dependent RNA polymerases from coronavirus and their use in molecular biology and drug screening” (Université de la Méditerranée, Aix-Marseille II, priority 2004, dated 2006)

Target: SARS CoV nsp8 RNA dependent RNA polymerase, N-terminally His-tagged (SARS-CoV replicase residues 3920-4117), SEQ ID NO. 1 (Severe acute respiratory syndrome coronavirus, UniProt P0C6X7)
Test: biochemical
Assay type: biochemical

Row | SMILES | nsp8 polymerase activity in presence of Rifampicine (inhibitor of the bacterial polymerase) | IC50 [nM] | Nsp8 activity inhibition in presence of 50 µM 3'-deoxy GTP
1 | CO[C@H]1/C=C/O[C@@]2(C)Oc3c(C)c(O)c4c(O)c(c(/C=N/N5CCN(C)CC5)c(O)c4c3C2=O)NC(=O)/C(C)=C\C=C\[C@H](C)[C@H](O)[C@@H](C)[C@@H](O)[C@@H](C)[C@H](OC(C)=O)[C@@H]1C [Rifampicine] | activity detected | – | –
2 | Nc1nc2c(ncn2[C@@H]2O[C@H](COP(=O)(O)OP(=O)(O)OP(=O)(O)O)C[C@H]2O)c(=O)[nH]1 [3'-deoxy GTP, 3'-deoxy-GTP] | – | ~80 | can be inhibited
